The source of these data is patent US8609836B2, “4-aryl-2-anilino-pyrimidines” (Janssen Pharmaceutica NV, priority 2008, dated 2013).

Test [1] has as its target PLK2 (h) (Homo sapiens, UniProt Q9NYY3). In words: PLK2 human kinase inhibition, SPA. It is filed as biochemical. Particulars: read-out: PLK2 pIC50 (converted). The gist of the method:
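SPA read on Leadseeker: PLK2 (30 μg/ml) with 2 μM biotinylated peptide, 0.1 μM ATP plus 2 nM [γ-33P]ATP in 50 mM Hepes pH 8.0, 2 mM MnCl2, 1 mM DTT. Reaction ran 20 min at room temperature, then EDTA stop and streptavidin PVT beads.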

The test system of test [2] is A2780. In words: Cellular proliferation assay (Alamar blue), A2780. The following applies: Homo sapiens, 10% FCS, 72 hours with compound, Alamar blue 24 h, read-out: A2780 (cellular proliferation assay, Table 4) (converted). It is filed as cell-based. A digest of the protocol:
(§1)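 Cells were seeded in medium with 10% FCS at 37° C, 5% CO2, left 24 h without compound, then exposed to compounds for 72 h. Viability was read with Alamar blue (resazurin 9 μg/ml, K-ferrocyanide and K-ferricyanide 90 μM each), 6 h for U87-MG, 4 h for HCT-116, 24 h for A2780 and MDA-MB-231.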
Background: The colour change of resazurin is a common sign of viable cells or microbes.

The test system of test [3] is MDA-MB-231. In words: Cellular proliferation assay (Alamar blue), MDA-MB-231. Particulars: Homo sapiens, 10% FCS, 72 hours with compound, Alamar blue 24 h, read-out: MDA/MB231 (cellular proliferation assay, Table 4) (converted). It is filed as cell-based. A digest of the protocol:
as §1

The test system of test [4] is HCT-116. In words: Cellular proliferation assay (Alamar blue), HCT-116. Format: cell-based. The following applies: Homo sapiens, 10% FCS, 72 hours with compound, Alamar blue 4 h. The gist of the method: as §1
The target of test [5] is CDK1/CyclinB (h) (Homo sapiens, UniProt P06493). In words: CDK1/CyclinB human kinase inhibition, Invitrogen's FRET assay (Z'lyte). It is filed as biochemical. The following applies: read-out: CDK1 pIC50 (converted). The gist of the method: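 Z'lyte FRET assay: human CDK1/CyclinB (0.2 μg/ml) with 2 μM Ser/Thr peptide 12 and 10 μM ATP in 50 mM Hepes pH 7.5, MgCl2, EGTA, Brij-35, 60 min at room temperature. Protease development 60 min, then emission ratio 460/538 nm read with excitation at 390 nm.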

For test [6], the target named is PLK3 (h) (Homo sapiens, UniProt Q9H4B4). In words: PLK3 human kinase inhibition, SPA. It is filed as biochemical. The following applies: read-out: PLK3 pIC50 (converted). The gist of the method:
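SPA: PLK3 (h) at 30 μg/ml with 2 μM biotinylated peptide, 0.1 μM ATP plus 2 nM [γ-33P]ATP in 50 mM Hepes pH 8.0, 2 mM MnCl2 and 1 mM DTT. Incubated 20 min at room temperature, then stopped with EDTA and streptavidin PVT beads. Scintillation imaged on Leadseeker.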

Test [7] deals with GSK3β (h) (Homo sapiens, UniProt P49841). In words: GSK-3β human kinase inhibition, SPA. Format: biochemical. Particulars: read-out: GSK3b pIC50 (converted). A digest of the protocol: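 Scintillation proximity assay: GSK3β (1 μg/ml) with 1 μM biotinylated peptide, 1 μM ATP plus [γ-33P]ATP in Tris pH 7.4, MgCl2, DTT. 60 min at room temperature, stopped with EDTA and streptavidin PVT beads; phosphorylation read by Leadseeker imaging.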

The target in test [8] is PLK1 T210D (h) (Homo sapiens, UniProt P53350, T210D). In words: PLK1 human kinase inhibition, SPA. It is filed as biochemical. Particulars: read-out: PLK1 pIC50 (converted). The gist of the method: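 Radiometric SPA with PLK1 T210D (0.125 ng/ml) in 50 mM Hepes pH 8.0, 2 mM MnCl2, 1 mM DTT, 2 μM biotinylated peptide, 0.1 μM ATP plus 2 nM [γ-33P]ATP. 40 min at room temperature, EDTA stop. Phosphorylated substrate captured on streptavidin PVT beads, scintillation imaged.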

The test system of test [9] is U87-MG. In words: Cellular proliferation assay (Alamar blue), U87-MG. It is filed as cell-based. The following applies: Homo sapiens, U-87 MG; 10% FCS; 72 hours with compound; Alamar blue 6 h; read-out: U87-MG (cellular proliferation assay, Table 4) (converted). The gist of the method: as §1
Test [10] concerns the target AuroraB (h) (Homo sapiens, UniProt Q96GD4). In words: Aurora-B human kinase inhibition, SPA. It is filed as biochemical. The following applies: read-out: AuroraB pIC50 (converted). A digest of the protocol:
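SPA with biotinylated peptide (3 μM) in 60 mM Hepes pH 7.5, Mg/Mn 3 mM each, 0.5 μM ATP plus [γ-33P]ATP, AuroraB at 0.5 μg/ml. The reaction runs 60 min at room temperature and is stopped with EDTA and streptavidin PVT beads. 33P-substrate is read by scintillation imaging.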

The subject of test [11] is H1299. In words: Cellular proliferation assay (Alamar blue), H1299. The following applies: Homo sapiens, NCI-H1299; 10% FCS; 72 hours with compound; Alamar blue 4 h. It is filed as cell-based. The gist of the method:
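This proliferation assay on NCI-H1299 cells used an initial 24-hour compound-free incubation after seeding, followed by 72 hours of compound treatment with 10% FCS serum at 37° C. and 5% (v/v) CO2. Viable cells were quantified by a 4 h Alamar blue incubation and fluorescent plate reading at 544 nm/590 nm, and effects were expressed relative to control cells.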

Test [12] addresses CDK4/CyclinD1 (h) (Homo sapiens, UniProt P11802). In words: CDK4/CyclinD1 human kinase inhibition, SPA with GST-pRb substrate. Particulars: read-out: CDK4 pIC50 (converted). Format: biochemical. As to the method: The in vitro inhibition of a panel of kinases was assessed using either the scintillation proximity assay (SPA) as described by Cook, N. D. et al., Advances in Experimental Medicine and Biology (1991), 36; p. 525-528.
In the SPA technology the activity of the kinase of interest is measured using an appropriate biotinylated substrate that is incubated with the aforementioned kinase protein in the presence of (^33P) radiolabeled ATP. (^33P) Phosphorylation of the substrate is subsequently measured through binding of the phosphorylated substrate to streptavidine coated beads that are based on the scintillant poly(vinyl toluene) (PVT-Beads). The scintillation intensity is detected by imaging on Leadseeker.
All kinases are pre-diluted to a 10× working concentration prior to addition into the assay. The composition of the dilution buffer for each kinase is detailed below.
In a final reaction volume of 30 μl, CDK4/CyclinD1 (h) (2.5 μg/ml) is incubated with 50 mM Hepes pH 7.5, 8 mM NaF, 20 mM MgCl2, 1 mM DTT, 40 μg/ml of substrate GST-pRb, 2 nM [γ-^33P-ATP] (6.0 μCi/ml). After incubation of 60 minutes at room temperature, the reaction is stopped by addition of 40 μL of stop solution containing 8.7 mM EDTA, 0.17% Triton X-100, 25 mg/ml Glutathion SPA Beads (GE-healthcare). The plate is centrifuged and read for Scintillation topcount analyzer.

The target of test [13] is PLK4 (h) (Homo sapiens, UniProt O00444). In words: PLK-4 human kinase inhibition, scintillation proximity assay (SPA). Format: biochemical. The following applies: read-out: PLK4 pIC50 (converted). A general note: In a scintillation proximity assay essentially only radioactivity close to the scintillant gives light.
PLK4 (h), sequence (O00444 whole entry): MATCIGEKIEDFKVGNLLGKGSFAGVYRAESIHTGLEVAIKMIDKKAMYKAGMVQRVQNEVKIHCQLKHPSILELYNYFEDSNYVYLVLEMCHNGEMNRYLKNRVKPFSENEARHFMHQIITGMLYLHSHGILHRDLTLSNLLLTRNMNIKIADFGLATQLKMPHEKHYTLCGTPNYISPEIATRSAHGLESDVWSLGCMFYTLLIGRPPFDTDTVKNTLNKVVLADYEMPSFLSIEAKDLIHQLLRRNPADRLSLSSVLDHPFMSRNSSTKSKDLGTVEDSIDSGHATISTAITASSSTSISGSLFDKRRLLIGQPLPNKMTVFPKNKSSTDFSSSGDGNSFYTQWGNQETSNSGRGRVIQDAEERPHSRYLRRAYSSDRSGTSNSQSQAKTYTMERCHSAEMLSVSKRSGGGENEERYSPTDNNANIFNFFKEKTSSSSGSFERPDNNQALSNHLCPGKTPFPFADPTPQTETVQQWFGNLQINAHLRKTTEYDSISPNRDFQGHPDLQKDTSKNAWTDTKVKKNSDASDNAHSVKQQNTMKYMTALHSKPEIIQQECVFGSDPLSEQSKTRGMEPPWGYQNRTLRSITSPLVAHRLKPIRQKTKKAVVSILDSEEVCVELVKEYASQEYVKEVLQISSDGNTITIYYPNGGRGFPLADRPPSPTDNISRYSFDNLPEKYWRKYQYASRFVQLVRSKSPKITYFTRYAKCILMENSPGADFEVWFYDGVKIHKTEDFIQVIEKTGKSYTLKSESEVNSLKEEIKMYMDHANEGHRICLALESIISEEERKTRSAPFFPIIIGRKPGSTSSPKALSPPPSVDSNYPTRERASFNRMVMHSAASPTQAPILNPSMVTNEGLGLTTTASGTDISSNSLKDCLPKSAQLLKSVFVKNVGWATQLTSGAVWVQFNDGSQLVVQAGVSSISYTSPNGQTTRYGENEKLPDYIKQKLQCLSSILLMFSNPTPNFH

CDK4/CyclinD1 (h), sequence (P11802 whole entry): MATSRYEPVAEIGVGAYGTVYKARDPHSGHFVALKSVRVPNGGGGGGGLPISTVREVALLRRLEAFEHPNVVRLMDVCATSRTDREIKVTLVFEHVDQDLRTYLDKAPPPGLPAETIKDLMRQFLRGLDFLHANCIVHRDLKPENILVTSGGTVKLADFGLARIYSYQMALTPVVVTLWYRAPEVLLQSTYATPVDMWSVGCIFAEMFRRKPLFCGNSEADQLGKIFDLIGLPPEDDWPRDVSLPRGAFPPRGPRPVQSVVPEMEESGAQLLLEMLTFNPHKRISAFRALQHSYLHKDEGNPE
CDK4/CyclinD1 (h), sequence (P24385 whole entry partner): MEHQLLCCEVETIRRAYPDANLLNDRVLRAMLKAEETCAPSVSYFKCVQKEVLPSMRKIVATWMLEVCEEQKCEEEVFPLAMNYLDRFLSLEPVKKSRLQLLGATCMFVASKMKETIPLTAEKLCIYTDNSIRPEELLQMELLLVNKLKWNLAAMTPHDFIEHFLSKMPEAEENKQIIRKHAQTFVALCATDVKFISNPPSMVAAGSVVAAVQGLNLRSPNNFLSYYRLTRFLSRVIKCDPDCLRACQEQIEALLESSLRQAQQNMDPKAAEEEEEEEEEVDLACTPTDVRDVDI
AuroraB (h), sequence (Q96GD4 whole entry): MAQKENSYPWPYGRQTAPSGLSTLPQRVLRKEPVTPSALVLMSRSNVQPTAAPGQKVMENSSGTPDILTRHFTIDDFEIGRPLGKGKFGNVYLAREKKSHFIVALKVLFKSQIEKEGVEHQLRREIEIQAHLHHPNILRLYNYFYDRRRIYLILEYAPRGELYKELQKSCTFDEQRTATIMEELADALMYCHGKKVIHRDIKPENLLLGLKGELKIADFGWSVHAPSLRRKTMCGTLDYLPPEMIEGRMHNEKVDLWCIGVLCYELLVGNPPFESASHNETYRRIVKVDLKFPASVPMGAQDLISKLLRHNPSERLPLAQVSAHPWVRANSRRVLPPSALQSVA
GSK3β (h), sequence (P49841 whole entry): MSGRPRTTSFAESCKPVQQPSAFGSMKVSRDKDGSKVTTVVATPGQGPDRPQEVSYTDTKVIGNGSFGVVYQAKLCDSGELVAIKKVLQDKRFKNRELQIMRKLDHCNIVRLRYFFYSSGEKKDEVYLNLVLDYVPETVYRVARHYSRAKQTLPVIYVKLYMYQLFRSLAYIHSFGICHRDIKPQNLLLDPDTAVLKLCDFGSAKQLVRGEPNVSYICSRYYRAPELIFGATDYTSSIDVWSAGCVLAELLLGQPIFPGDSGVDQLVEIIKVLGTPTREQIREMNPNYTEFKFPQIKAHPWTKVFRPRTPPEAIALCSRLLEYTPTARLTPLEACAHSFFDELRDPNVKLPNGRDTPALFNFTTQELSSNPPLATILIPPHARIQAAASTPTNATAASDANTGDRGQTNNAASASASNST
PLK2 (h), sequence (Q9NYY3 whole entry): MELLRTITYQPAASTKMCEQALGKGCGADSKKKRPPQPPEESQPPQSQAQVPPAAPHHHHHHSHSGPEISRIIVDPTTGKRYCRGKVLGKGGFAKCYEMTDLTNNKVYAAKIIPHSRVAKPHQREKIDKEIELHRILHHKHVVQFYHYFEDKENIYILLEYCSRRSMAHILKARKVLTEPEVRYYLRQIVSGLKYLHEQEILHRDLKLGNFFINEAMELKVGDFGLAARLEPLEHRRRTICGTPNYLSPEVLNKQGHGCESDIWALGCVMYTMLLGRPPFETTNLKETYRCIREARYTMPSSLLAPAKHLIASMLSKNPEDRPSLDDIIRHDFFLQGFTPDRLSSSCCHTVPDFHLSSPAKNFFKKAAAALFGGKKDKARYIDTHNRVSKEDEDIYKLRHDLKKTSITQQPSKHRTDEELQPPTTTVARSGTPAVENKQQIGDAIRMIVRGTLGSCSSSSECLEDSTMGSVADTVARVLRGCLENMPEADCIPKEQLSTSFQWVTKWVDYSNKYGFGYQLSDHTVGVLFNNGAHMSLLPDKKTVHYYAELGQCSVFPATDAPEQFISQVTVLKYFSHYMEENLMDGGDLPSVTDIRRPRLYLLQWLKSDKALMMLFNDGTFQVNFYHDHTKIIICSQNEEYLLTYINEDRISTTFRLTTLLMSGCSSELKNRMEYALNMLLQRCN
CDK1/CyclinB (h), sequence (P06493 whole entry): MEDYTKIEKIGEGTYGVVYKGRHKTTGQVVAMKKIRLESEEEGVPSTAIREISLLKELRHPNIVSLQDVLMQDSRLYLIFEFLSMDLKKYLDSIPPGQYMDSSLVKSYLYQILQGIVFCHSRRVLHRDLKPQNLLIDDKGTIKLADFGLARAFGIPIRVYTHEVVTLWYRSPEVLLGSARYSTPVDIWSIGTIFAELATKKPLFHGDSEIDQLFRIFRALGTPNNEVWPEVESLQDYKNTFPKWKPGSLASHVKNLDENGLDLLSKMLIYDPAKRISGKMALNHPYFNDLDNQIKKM
CDK1/CyclinB (h), sequence (P14635 whole entry partner): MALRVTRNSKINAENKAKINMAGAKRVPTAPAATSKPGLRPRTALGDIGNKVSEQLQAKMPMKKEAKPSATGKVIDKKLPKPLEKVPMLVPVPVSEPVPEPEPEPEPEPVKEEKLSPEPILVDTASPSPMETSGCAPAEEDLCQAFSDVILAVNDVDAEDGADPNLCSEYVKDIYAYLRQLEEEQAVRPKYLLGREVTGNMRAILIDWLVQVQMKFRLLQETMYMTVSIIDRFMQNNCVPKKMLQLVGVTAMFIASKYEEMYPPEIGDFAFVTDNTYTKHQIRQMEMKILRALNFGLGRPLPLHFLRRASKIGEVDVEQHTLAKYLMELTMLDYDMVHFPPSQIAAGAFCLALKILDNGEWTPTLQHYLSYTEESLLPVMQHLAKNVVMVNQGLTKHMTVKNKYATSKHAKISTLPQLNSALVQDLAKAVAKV
PLK3 (h), sequence (Q9H4B4 whole entry): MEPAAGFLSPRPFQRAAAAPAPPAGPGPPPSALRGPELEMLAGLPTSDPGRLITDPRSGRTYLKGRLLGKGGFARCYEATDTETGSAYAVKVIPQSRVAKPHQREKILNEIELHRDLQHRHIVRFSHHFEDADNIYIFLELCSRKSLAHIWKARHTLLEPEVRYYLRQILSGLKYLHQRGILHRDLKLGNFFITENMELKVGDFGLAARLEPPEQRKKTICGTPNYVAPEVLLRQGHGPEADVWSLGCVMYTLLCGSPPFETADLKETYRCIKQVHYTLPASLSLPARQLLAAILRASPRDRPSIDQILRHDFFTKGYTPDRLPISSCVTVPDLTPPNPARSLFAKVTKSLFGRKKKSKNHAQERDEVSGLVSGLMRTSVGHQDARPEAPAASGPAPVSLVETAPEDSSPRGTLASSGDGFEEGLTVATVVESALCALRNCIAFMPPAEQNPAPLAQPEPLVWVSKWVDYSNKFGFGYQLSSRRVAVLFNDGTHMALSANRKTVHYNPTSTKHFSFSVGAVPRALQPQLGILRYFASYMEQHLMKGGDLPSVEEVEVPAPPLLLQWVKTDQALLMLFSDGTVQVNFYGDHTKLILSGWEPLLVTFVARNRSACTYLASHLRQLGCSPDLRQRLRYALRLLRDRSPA
PLK1 T210D (h), sequence (P53350 whole entry T210D): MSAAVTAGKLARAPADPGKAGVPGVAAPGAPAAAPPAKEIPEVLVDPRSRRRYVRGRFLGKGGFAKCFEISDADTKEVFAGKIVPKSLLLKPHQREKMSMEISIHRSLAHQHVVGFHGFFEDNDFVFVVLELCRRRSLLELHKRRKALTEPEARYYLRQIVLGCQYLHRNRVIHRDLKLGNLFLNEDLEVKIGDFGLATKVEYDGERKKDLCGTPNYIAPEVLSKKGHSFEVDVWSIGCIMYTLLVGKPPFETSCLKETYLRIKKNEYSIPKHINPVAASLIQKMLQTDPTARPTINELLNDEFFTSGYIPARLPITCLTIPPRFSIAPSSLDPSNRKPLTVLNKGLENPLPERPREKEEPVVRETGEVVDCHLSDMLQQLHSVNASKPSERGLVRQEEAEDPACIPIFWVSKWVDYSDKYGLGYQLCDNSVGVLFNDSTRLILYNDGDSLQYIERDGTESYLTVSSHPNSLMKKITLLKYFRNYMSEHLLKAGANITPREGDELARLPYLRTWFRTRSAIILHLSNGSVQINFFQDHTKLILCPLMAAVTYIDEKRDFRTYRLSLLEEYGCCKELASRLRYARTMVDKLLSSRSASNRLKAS

On to `CN1CCN(Cc2cc3cc(c2)Nc2nccc(n2)-c2cccc(c2)CNC(=O)[C@@H]2CCCN2C3)CC1` [Compound 28], for which the IC50 is greater than 10 µM in test [1]; 0.55 µM in test [2]; 1.62 µM in [3]; 0.363 µM in [4]; 0.603 µM in test [5]; greater than 10 µM in test [6]. Also, the IC50 in [7] is 0.112 µM; in [8] it was greater than 10 µM; in test [9], 0.158 µM; in test [10], greater than 10 µM; in test [11] it was 2.24 µM; in test [12] it was 1.66 µM.

For the molecule `COc1cc2cc(c1)Nc1nccc(n1)-c1ccc(cc1)CN(C)CCCNC(=O)CN1CCN(CC1)C2` [Compound 133], the IC50 in [1] is greater than 3.02 µM; in test [2] it was greater than 10 µM; in test [3], greater than 10 µM; in [4], 1.95 µM; in test [5], greater than 10 µM; in test [6], greater than 10 µM. The IC50 was 1.51 µM in test [13]; greater than 10 µM in test [8]; 8.91 µM in test [9]; greater than 10 µM in [10]; greater than 10 µM in [11]; greater than 10 µM in test [12].

Turning to `COc1ccc2cc1CNCCCNC(=O)CN1CCN(CC1)Cc1cc(ccc1N1CCOCC1)Nc1nccc-2n1` [Compound 13], the IC50 in test [1] was greater than 10 µM; in [3] it was greater than 10 µM; in test [4] it was greater than 10 µM; in [5] it was greater than 10 µM; in [6], greater than 10 µM; in test [13], 0.49 µM. Moreover, the IC50 in test [7] is greater than 10 µM; in test [8] it was greater than 10 µM; in test [10] it was 4.17 µM; in [11], greater than 10 µM; in test [12] it was greater than 10 µM.

For the molecule `O=C1CN2CCN(CC2)Cc2cc(ccc2N2CCOCC2)Nc2nccc(n2)-c2ccc(cc2)CNCCN1` [Compound 125], the IC50 is greater than 10 µM in test [1]; greater than 10 µM in test [3]; greater than 10 µM in [4]; greater than 10 µM in test [5]; greater than 10 µM in test [6]; 0.692 µM in [13]. Further, the IC50 in test [7], in test [8], in test [10], in test [11] and in test [12] was greater than 10 µM each time.

For `O=C1NCc2cccc(c2)-c2ccnc(n2)Nc2cccc(c2)CN2CCC[C@@H]12` [Compound 53], the IC50 is greater than 10 µM in [1]; greater than 10 µM in [2]; greater than 10 µM in [3]; 8.71 µM in [4]; greater than 10 µM in [6]; greater than 10 µM in test [13]. Further, the IC50 in [7] was 0.126 µM; in test [8], greater than 10 µM; in test [9] it was 6.61 µM; in [10], greater than 10 µM; in [11] it was greater than 10 µM; in test [12], greater than 10 µM.

Regarding `COc1ccc2cc1CNCCCNC(=O)C1CCN(CC1)Cc1cc(ccc1N1CCOCC1)Nc1nccc-2n1` [Compound 3], the IC50 in test [1] was greater than 10 µM; in test [3], greater than 10 µM; in [4], greater than 10 µM; in test [5] it was greater than 10 µM; in test [6], greater than 10 µM; in [13], 0.0871 µM. In addition, the IC50 was greater than 10 µM in test [7]; greater than 10 µM in test [8]; 1.55 µM in test [10]; greater than 10 µM in test [11]; greater than 10 µM in test [12].
